Source: patent publication US7094557B2, “2-Methyl-3-butenyl-1-pyrophosphoric acid salt and agent for treating lymphocytes” (Chugai Seiyaku Kabushiki Kaisha, priority 1999, dated 2006)
Like-named read-outs stand apart in the source and are kept apart here.

How the values were obtained:
Vγ2Vδ2 type T cells = settings: prior art; cited from earlier work
[1] = for Stable preservation time in solution: neutral aqueous solution
[2] = tested on: normal peripheral blood cells of A; settings: treated peripheral bloods of A (after freezing and thawing) and F on normal peripheral blood cells of A
Procedure: In Test examples, treatment of the peripheral blood by 2-methyl-3-butenyl-1-pyrophosphoric acid or by a salt thereof was conducted as follows unless otherwise specified. Lymphocytes contained in the peripheral blood derived from healthy volunteer were treated so that the final concentration of the pyrophosphoric acid compound was 20 μM, and cultured in a Yssel's medium under conditions of temperature at 37° C. and a carbon dioxide concentration of 5%. […] After 12 days, the cells were collected.

[3] = tested on: human Vγ2Vδ2 type T cells; assay: Proliferation of Vγ2Vδ2 type T cells in treated peripheral blood mononuclear cells (ratio in CD3 cells); assay type: cell-based; settings: day 11, peripheral blood mononuclear cells of volunteer G
Procedure: After 12 days, the cells were collected.
10 ml of the peripheral blood collected from a healthy volunteer G was subjected to Ficoll-Paque specific gravity centrifugation to purify the peripheral blood mononuclear cells and they were suspended in a Yssel's medium. The cells were apportioned into a 24-hole plate so that the number of the cells becomes a concentration of 2.5 million/1.5 ml/hole, and then, according to the above-mentioned method, treatments 1 to 5 were conducted as shown in Table 1. […] On the day 11 after conducting the treatment, a ratio of Vγ2Vδ2 type T cells in existing CD3 cells was calculated.

[4] = tested on: human Vγ2Vδ2 type T cell clones

| SMILES | Concentration required to activate Vγ2Vδ2 type T cells (Vγ2Vδ2 type T cells) | Dissociation of inorganic pyrophosphoric acid ([1]; acidic range of pH 4 or less) | Stable preservation time in solution ([1]; pH 6 to 7, room temperature) | Stable preservation time in solution ([1]; pH 6 to 7, −20° C.) | Cytotoxicity of treated Vγ2Vδ2 type T cells on normal cells [2] | Vγ2Vδ2 type T cells/CD3 cells ([3]; 2 μM sodium salt + interleukin-2 10 U/ml) | Vγ2Vδ2 type T cells/CD3 cells ([3]; 20 μM sodium salt + interleukin-2 10 U/ml) | Vγ2Vδ2 type T cells/CD3 cells ([3]; 200 μM sodium salt + interleukin-2 10 U/ml) | Amount in whose presence the human Vγ2Vδ2 type T cells proliferate [4] | Amount that can stimulate the cells ([4]; human Vγ2Vδ2 type T cell clones) |
| --- | --- | --- | --- | --- | --- | --- | --- | --- | --- | --- |
| C=C(C)CCOP(=O)(O)OP(=O)(O)O [isopentenyl pyrophosphoric acid] | several hundreds of μM to several mM |  |  |  |  |  |  |  |  |  |
| C=CC(C)COP(=O)([O-])OP(=O)([O-])[O-].[Na+].[Na+].[Na+] (centres unmarked) [sodium salt of 2-methyl-3-butenyl-1-pyrophosphoric acid] |  | observed within a few minutes | more than one week | more than one year | do not attack the normal cells | 58.3% | 85.5% | 94.5% | several hundreds μM | several hundreds nM to several tens μM |
| CCOP(=O)(O)O [mono ethyl phosphoric acid] | several hundreds of μM to several mM |  |  |  |  |  |  |  |  |  |
